Source: patent publication US20180016593A1, “HERBICIDE-RESISTANT SUNFLOWER PLANTS, POLYNUCLEOTIDES ENCODING HERBICIDE-RESISTANT ACETOHYDROXYACID SYNTHASE LARGE SUBUNIT PROTEINS, AND METHODS OF USE” (priority 2005, published 2018)
Several values for one entry are separate records, joined by “and”; a condition that tells them apart may be missing. Equal entries are not always repeated. Where two headings read alike, the source gives them in different places.

Test system: sunflower lines carrying the A122T mutation
Format: in vivo, Helianthus annuus
Details: 14 DAT; for biomass accumulation, Dif A122T-A205V / plant height, Dif A122T-A205V / root dry weight, Dif with A122T-A205V: A122T mean minus A205V mean; for biomass accumulation, Dif with Control / plant height, Dif with Control / root dry weight, Dif with Control: A122T mean; for Phytotoxicity Index, Dif A205V-A122T: A205V mean minus A122T mean; for biomass accumulation, Mean / plant height, Mean / root dry weight, Mean: six A122T genotypes
Method: A greenhouse study was conducted to quantify and contrast the imazapir sensivity of the mutants A122T and A205V in different genetic backgrounds at the whole plant level in sunflower. Seeds of the different sunflower lines that were used in this study were obtained under field conditions.
Seeds were sown in Petri dishes and, after germination, plantlets were transplanted to pots of 10 cm of diameter in a potting media consisting of equal parts of vermiculite, soil and sand. Plants were grown in a greenhouse under natural light conditions supplemented with 400 W sodium halide lamps to provide a 16 hrs daylength. Day/night temperatures were 25 and 20° C., respectively. At the V2 stage 10 plants of each genotype were randomly assigned to each treatment consisting of […] imazapir doses (0, 40, 80, 160, 240, 320, 400 and 480 g ai/ha), and a zero-time biomass determination. Experiment was arranged as a randomized block design with a full factorial (sunflower line×treatment) arrangement of treatments and 10 replications.
On the day of herbicide application ten plants of each genotype were cut at the cotyledonal node and dried at 60° C. for 48 hrs zero-time for dried weight determination.
Height was determined as the distance between the cotyledonal node and the apex of each plant. For root biomass determination, each plant was taken from the pot and the potting media was washed out from the roots. Above ground biomass data from each line were converted to biomass accumulation after application by subtracting the appropriate average zero-time biomass from each sample. Dry biomass data were converted to percentages of the untreated control plants within each line to allow direct comparisons between groups. […]

CC(C)C1(C)N=C(c2ncccc2C(=O)O)NC1=O (centres unmarked) [imazapyr]
biomass accumulation, Dif A122T-A205V (0.5x (40 g ai/ha)): 4.3 % of untreated plots
plant height, Dif A122T-A205V (0.5x (40 g ai/ha)): 4.9 % of untreated plots
root dry weight, Dif with A122T-A205V (0.5x (40 g ai/ha)): 12.7 % of untreated plots
biomass accumulation, Dif A122T-A205V (1x (80 g ai/ha)): 14.5 % of untreated plots
plant height, Dif A122T-A205V (1x (80 g ai/ha)): 9.4 % of untreated plots
root dry weight, Dif with A122T-A205V (1x (80 g ai/ha)): 26.7 % of untreated plots
biomass accumulation, Dif A122T-A205V (2x (160 g ai/ha)): 33.2 % of untreated plots
plant height, Dif A122T-A205V (2x (160 g ai/ha)): 28.0 % of untreated plots
root dry weight, Dif with A122T-A205V (2x (160 g ai/ha)): 43.6 % of untreated plots
biomass accumulation, Dif A122T-A205V (3x (240 g ai/ha)): 45.3 % of untreated plots
plant height, Dif A122T-A205V (3x (240 g ai/ha)): 45.3 % of untreated plots
root dry weight, Dif with A122T-A205V (3x (240 g ai/ha)): 50.2 % of untreated plots
biomass accumulation, Dif A122T-A205V (4x (320 g ai/ha)): 52.4 % of untreated plots
plant height, Dif A122T-A205V (4x (320 g ai/ha)): 59.9 % of untreated plots
root dry weight, Dif with A122T-A205V (4x (320 g ai/ha)): 50.3 % of untreated plots
biomass accumulation, Dif A122T-A205V (5x (400 g ai/ha)): 46.9 % of untreated plots
plant height, Dif A122T-A205V (5x (400 g ai/ha)): 57.8 % of untreated plots
root dry weight, Dif with A122T-A205V (5x (400 g ai/ha)): 47.9 % of untreated plots
biomass accumulation, Dif A122T-A205V (6x (480 g ai/ha)): 44.6 % of untreated plots
plant height, Dif A122T-A205V (6x (480 g ai/ha)): 54.0 % of untreated plots
root dry weight, Dif with A122T-A205V (6x (480 g ai/ha)): 37.3 % of untreated plots
biomass accumulation, Dif with Control (0.5x (40 g ai/ha)): 1.1 % of untreated plots
plant height, Dif with Control (0.5x (40 g ai/ha)): 0.6 % of untreated plots
root dry weight, Dif with Control (0.5x (40 g ai/ha)): 0.1 % of untreated plots
biomass accumulation, Dif with Control (1x (80 g ai/ha)): 3.2 % of untreated plots
plant height, Dif with Control (1x (80 g ai/ha)): 1.4 % of untreated plots
root dry weight, Dif with Control (1x (80 g ai/ha)): 2.5 % of untreated plots
biomass accumulation, Dif with Control (2x (160 g ai/ha)): 5.1 % of untreated plots
plant height, Dif with Control (2x (160 g ai/ha)): 2.7 % of untreated plots
root dry weight, Dif with Control (2x (160 g ai/ha)): 5.9 % of untreated plots
biomass accumulation, Dif with Control (3x (240 g ai/ha)): 7.2 % of untreated plots
plant height, Dif with Control (3x (240 g ai/ha)): 4.4 % of untreated plots
root dry weight, Dif with Control (3x (240 g ai/ha)): 10.6 % of untreated plots
biomass accumulation, Dif with Control (4x (320 g ai/ha)): 12.2 % of untreated plots
plant height, Dif with Control (4x (320 g ai/ha)): 6.3 % of untreated plots
root dry weight, Dif with Control (4x (320 g ai/ha)): 18.6 % of untreated plots
biomass accumulation, Dif with Control (5x (400 g ai/ha)): 20.7 % of untreated plots
plant height, Dif with Control (5x (400 g ai/ha)): 10.2 % of untreated plots
root dry weight, Dif with Control (5x (400 g ai/ha)): 21.3 % of untreated plots
plant height, Dif with Control (6x (480 g ai/ha)): 15.8 % of untreated plots
root dry weight, Dif with Control (6x (480 g ai/ha)): 38.3 % of untreated plots
biomass accumulation, Dif with Control (6x (480 g ai/ha), listed as imazapir): 25 % of untreated plots and 25.4 % of untreated plots
Phytotoxicity Index, Dif A205V-A122T (0.5x (40 g ai/ha)): −0.29
Phytotoxicity Index, Dif A205V-A122T (1x (80 g ai/ha)): −0.29
Phytotoxicity Index, Dif A205V-A122T (2x (160 g ai/ha)): 1.87
Phytotoxicity Index, Dif A205V-A122T (3x (240 g ai/ha)): 4.81
Phytotoxicity Index, Dif A205V-A122T (4x (320 g ai/ha)): 6.92
Phytotoxicity Index, Dif A205V-A122T (5x (400 g ai/ha)): 7.38
Phytotoxicity Index, Dif A205V-A122T (6x (480 g ai/ha)): 7.03
biomass accumulation, Mean (0.5x (40 g ai/ha)): 98.9 % of untreated plots
plant height, Mean (0.5x (40 g ai/ha)): 99.4 % of untreated plots
root dry weight, Mean (0.5x (40 g ai/ha)): 99.9 % of untreated plots
biomass accumulation, Mean (1x (80 g ai/ha)): 96.8 % of untreated plots
plant height, Mean (1x (80 g ai/ha)): 98.6 % of untreated plots
root dry weight, Mean (1x (80 g ai/ha)): 97.5 % of untreated plots
biomass accumulation, Mean (2x (160 g ai/ha)): 94.9 % of untreated plots
plant height, Mean (2x (160 g ai/ha)): 97.3 % of untreated plots
root dry weight, Mean (2x (160 g ai/ha)): 94.1 % of untreated plots
biomass accumulation, Mean (3x (240 g ai/ha)): 92.8 % of untreated plots
